Patent US20170121295A1, “POLYCYCLIC LPA1 ANTAGONIST AND USES THEREOF” (AMIRA PHARMACEUTICALS, INC., priority 2010, published 2017)
≈ marks a conversion by molar mass, not a printed value.

Columns and labels:
[1] = Metabolites generated in vivo (rat bile and urine, rat and dog plasma)
Procedure: Compound 2 (2 mg/kg) was administered intravenously (IV) to fasted rats as a solution in 0.9% saline via a bolus injection into the jugular vein (2 mg/mL; […]).
Rats with surgically placed bile duct and jugular vein cannula were purchased from Charles River Laboratories and allowed to acclimate for 2 days. Compound 2 was intravenously dosed (2 mg/kg) to three rats as a solution in 0.9% saline (2 mg/mL; 1 mL/kg). Bile samples were collected at time-points 0-2, 2-5 and 5-8, and urine samples were collected at time-points 0-4 and 4-8 hrs post-dose in 8 mL scintillation vials and stored at −40° C. until analysis.
Concentrations of Compound 1 in rat plasma were determined by LC-MS/MS after protein precipitation. Rat plasma (100 μL) was treated with 400 μL of internal standard solution (ISTD, buspirone in acetonitrile containing 1.5% acetic acid) to precipitate proteins. Samples were vortexed and then centrifuged for 10 min at approximately 4,000 rpm (3700×g) at 4° C. (Beckman centrifuge, Brea, Calif.).
Parent/metabolite analysis was conducted in the positive ion mode (ESI) by multiple reaction monitoring of parent. The mobile phases contained 10 mM ammonium acetate in water with 0.05% formic acid (solvent A) and 10 mM ammonium acetate in 50% acetonitrile/50% methanol with 0.05% formic acid (solvent B). For Compound 1, the flow rate was maintained at 1 mL/min and the total run time was 2.5 min. Analytes were separated on a YMC ODS-AQ column (2.1×150 mm; 3 μm) and eluted with a linear gradient as follows: • 1. mobile phase was held for 0.5 min at 5% B, • 2. B was increased from 5% to 95% over the next 0.2 min, • 3. B was held constant for 1.3 min at 95%, and • 4. B was returned to the initial gradient conditions.
For metabolite quantitation, the flow rate was maintained at 0.25 mL/min and the total run time was 60 min. Analytes were separated using a linear gradient as follows: • 1. mobile phase was held for 5 min at 5% B, • 2. B was increased from 5% to 95% over the next 45 min. • 3. B was held constant for 5 min at 95%, and • 4. B was returned to the initial gradient conditions

[2] = Solubility in a range of solvents (crystallisation experiments); format: physicochemical; conditions: organic solvents; water, cyclohexane, heptane unsuitable
Procedure: 20 mg of Compound 1 was weighed into a HPLC vial. 40 μL of ethanol was added and the vial was heated to reflux with a hot air gun. The solution was cooled to ambient temperature and the solids were filtered off. Crystalline Compound 1 (Pattern 1) was obtained as determined by XRPD. In the same manner as described from ethanol, the following solvents also provided crystalline Compound 1 (Pattern 1): methanol, 2-methoxyethanol, ethanol, 1-propanol, 2-propanol, 1-butanol, butyl acetate, acetone, methylethyl ketone, anisole, toluene. 5 Volumes (i.e. 100 μL) of the following solvents with heating also provided crystalline Compound 1 (Pattern 1): nitromethane, acetonitrile, ethyl acetate, cumene.
Compound 1 dissolved in 2 volumes (i.e. 40 μL) of the following solvents at ambient temperature: 1-4-dioxane, tetrahydrofuran. The vials were uncapped and allowed to slowly evaporate. This provided crystalline Compound 1 (Pattern 1).

Human LPA3 = molecular target: T1, Human LPA3 (Homo sapiens, UniProt Q9UBY5); experiment: LPA3 Calcium Flux Assay; format: cell-based; conditions: human LPA3 expressing CHO cells, 10 nM LPA; read-out: Ca Flux IC50 LPA3
T1 construct: The full-length cDNA fragment for human LPA3 was obtained by PCR from the vector
T1 sequence (Q9UBY5 1-353): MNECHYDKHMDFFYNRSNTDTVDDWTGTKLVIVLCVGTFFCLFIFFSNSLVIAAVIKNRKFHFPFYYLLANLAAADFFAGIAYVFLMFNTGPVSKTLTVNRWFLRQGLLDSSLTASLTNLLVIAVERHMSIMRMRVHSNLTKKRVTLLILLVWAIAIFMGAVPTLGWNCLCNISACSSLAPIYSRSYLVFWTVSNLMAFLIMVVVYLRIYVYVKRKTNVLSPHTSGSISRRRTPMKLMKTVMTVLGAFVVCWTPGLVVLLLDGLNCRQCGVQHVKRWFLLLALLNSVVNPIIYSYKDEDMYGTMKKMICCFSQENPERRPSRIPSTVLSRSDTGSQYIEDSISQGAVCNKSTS
Procedure: A vector containing the human LPA3 receptor cDNA was obtained from the Missouri S&T cDNA Resource Center (www.cdna.org). The full-length cDNA fragment for human LPA3 was obtained by PCR from the vector. The nucleotide sequence of the cloned human LPA3 was determined by sequencing and confirmed to be identical to the published human LPA3 sequence (NCBI accession number NM_012152). The cDNA was cloned into the pCDNA5/FRT expression plasmid and transfected in CHO cells using lipofectamine 2000 (Invitrogen Corp., USA). Clones stably expressing human LPA3 were selected using hygromycin and identified as cells that show Ca-influx in response to LPA.
Human LPA1 or LPA3 expressing CHO cells are seeded at 20,000-45,000 cells per well in a 96-well poly-D-lysine coated plate one or two days before the assay. Prior to the assay, the cells are washed once with PBS and then cultured in serum-free media overnight. On the day of the assay, a calcium indicator dye (Calcium 4, Molecular Devices) in assay buffer (HBSS with Ca^2+ and Mg^2+ and containing 20 mM Hepes and 0.3% fatty-acid free human serum albumin) is added to each well and incubation continued for 1 hour at 37° C. 10 μl of test compound in 2.5% DMSO are added to the cells and incubation continued at room temperature for 30 minutes. Cells are the stimulated by the addition of 10 nM LPA and intracellular Ca^2+ measured using the Flexstation 3 (Molecular Devices). IC50s are determined using Graphpad prism analysis of drug titration curves.

[3] = Solubility assessment at various pH levels (solubility profile); format: physicochemical; conditions: 0.15M NaCl solution, saline or isotonic, thermodynamic from solid
Procedure: For solubility assessment at various pH levels sufficient material to produce a maximum concentration of 10 mg·ml^−1 of API was treated with 0.15M NaCl solution and then the pH adjusted with HCl or NaOH solutions to achieve the desired pH levels. The suspensions were allowed to equilibrate for 2 hours and the pH measured and adjusted if necessary. Suspensions were then filtered and the amount of dissolved API quantified by HPLC against a standard reference solution.
Analysis was performed on an Agilent HP1100 series system equipped with a diode array detector and using ChemStation software vB.02.01-SR1.
The solubility of both the free acid and amorphous sodium salt was determined at a range of pH values.

Cc1noc(-c2ccc(-c3ccc(C4(C(=O)O)CC4)cc3)cc2)c1NC(=O)O[C@H](C)c1ccccc1 [Compound 1, 1-{4′-[3-methyl-4-((R)-1-phenyl-ethoxycarbonylamino)-isoxazol-5-yl]-biphenyl-4-yl}-cyclopropanecarboxylic acid]
GSH adduct in rat bile ([1]; in vivo): neither GSH adduct is observed | primary amine (decarboxylation) and its secondary metabolites ([1]; plasma (rat & dog), rat bile or urine): Neither the primary amine (i.e. decarboxylation) nor its secondary metabolites (glycosylation or glucuronidation) are observed | solubility in a range of solvents [2]: good solubility in a range of solvents | IC50 (Human LPA3): > 1 µM | solubility at 2 h ([3]; Target pH 3, pH adjusted with HCl or NaOH): < 1 µg/mL | solubility at 2 h ([3]; Target pH 4, pH adjusted with HCl or NaOH): < 1 µg/mL | solubility at 2 h ([3]; Target pH 5, pH adjusted with HCl or NaOH): < 1 µg/mL | solubility at 2 h ([3]; Target pH 6, pH adjusted with HCl or NaOH): < 1 µg/mL | solubility at 2 h ([3]; Target pH 7, pH adjusted with HCl or NaOH): 3.3 µg/mL (≈ 6.84 µM) | solubility at 2 h ([3]; Target pH 8, pH adjusted with HCl or NaOH): 35 µg/mL (≈ 72.5 µM) | solubility at 2 h ([3]; Target pH 9, pH adjusted with HCl or NaOH): 930 µg/mL (≈ 1930 µM) | solubility at 2 h ([3]; Target pH 11, pH adjusted with HCl or NaOH): 13000 µg/mL (≈ 26900 µM)
